Assay results published in patent US20210228523A1, “MODULATORS OF SESTRIN-GATOR2 INTERACTION AND USES THEREOF” (Navitor Pharmaceuticals, Inc., priority 2017, published 2021).
Values joined by “and” are separate entries in the source; they are usually repeats but may differ in a detail not shown here. Identical values can stand only once.

How the values were obtained:
Format in all cases: in vivo, rat
Male Sprague Dawley rats [1] = assay: Female Urine Sniffing Test (FUST); conditions: Example A, 24 hrs post-dose; for time spent sniffing female urine (FUST): mean±SEM, n=8
Description: Behavioral Analysis Using the Female Urine Sniffing Test (FUST): The FUST was conducted according to published procedures (Malkesman, O. et al, Biol Psychiatry 67(9): 864-71 (2010)), 24 hr post-dosing. Briefly, rats were habituated for 60 min to a cotton swab dipped in tap water in their home cage. Next, rats were exposed to a 2nd cotton swab dipped in tap water and 45 min later they were exposed to a 3rd cotton swab infused with fresh rat urine from 11 to 14-week-old female rats in estrus. The total time (s) spent sniffing the cotton-tipped applicator was quantitated over 5 min for each animal.
(§1) Study Design. Thirty-two (32) male Sprague Dawley Male rats weighing between 175 and 200 g were randomized into 4 study groups (n=8/treatment group), following a 5-day acclimation period. On study day 0, rats received a single dose of either saline (Sal) or ketamine (Ket) in Groups 1 and 2, respectively, by intraperitoneal injection (i.p.). The rats in Group 3 and 4 received a single dose of the NV-5138 vehicle (Veh, 0.5% Methylcellulose/0.1% Tween-80) or NV-5138 (160 mg/kg), respectively, by oral gavage. All rats were subjected to the FUST on day 1, 24 hrs after dosing. On day 2, 48 hrs after dosing, the LMA of all rats was measured in an open field. Rats were then fasted for 20 hrs and subjected to the NSFT, 72 hrs post-dose.
Preparation of Test Articles. Ket (Sigma, cat #K1884) was dissolved in Sal at a concentration of 10 mg/mL. A volume of 1 ml/kg of Sal or Ket was injected i.p. for Groups 1 and 2, respectively. NV-5138 (Navitor, lot #06) was prepared by dissolving in Veh (0.5% methylcellulose/0.1% Tween-80) at a concentration of 50 mg/mL. The dosing volume based on the weight of the animal (3.2 mL/kg) of Veh or NV-5138 was administered by oral gavage to study animals in Groups 3 and 4, respectively. Test articles were prepared the day of dosing.

Male Sprague Dawley rats [2] = assay: Novelty Suppressed Feeding Test (NSFT) with home cage feeding control
Description: Behavioral Analysis Using the Novelty Suppressed Feeding Test (NSFT): The NSFT was conducted as previously described (Warner-Schmidt, J. L. & Duman, R. S. PNAS 104(11): 4647-52 (2007)). Rats were fasted in their home cages for 20 hr and then placed in a Plexiglas open field (76.5 cm×76.5 cm×40 cm) with a small amount of food in the center. Animals were allowed to explore the open field for 8 min and the latency to feed (s) was recorded.
Chronic Unpredictable Stress (CUS) Conditions: Rats were exposed to a variable sequence of 12 unpredictable stressors, preventing habituation as described (Li, N. et al., Biol Psychiatry 69(8): 754-61 (2011)). The following twelve stressors were applied (2 per day, for 25 days): cage rotation, light on, light off, cold stress, isolation, swim stress, food and water deprivation, wet bedding, stroboscope, cage tilt, odor exposure and group housing. The animals in non-stressed (NS) groups were housed normally without the application of external stressors. Both NS and CUS rats were handled and weighed weekly.
as §1
Study Design: Fifty-six (56) male rats weighing between 175 and 200 g were randomized into 4 study groups (n=14/group), following a 5-day acclimation period. On study day minus 20, two groups of rats were subjected to CUS for 25 days and two groups of rats were housed normally serving as the NS group. On the day 21 of the CUS protocol, rats received a single dose of either Veh or NV-5138 (160 mg/kg) by oral gavage (day 0). The SPT and NSFT were performed 24 and 48 hrs post-administration (days 1 and 2), respectively. Upon completion of the behavioral tests, after 25 days of the CUS protocol a second dose of NV-5138 or Veh was administered on day 5 and rats were sacrificed 24 hrs later by conscious decapitation. Crude synaptosomes were prepared from the PFC and the synaptic proteins, GluR1 and PSD95 were quantitated by WB.
Study Design. Twenty (20) male rats weighing between 175 and 200 g were randomized into 3 study groups (n=6-7/group), following a 5-day acclimation period. All rats were surgically implanted with bilateral IT cannulas in the PFC 2 weeks prior to dosing. […] Thirty minutes following the intrathecal infusions, either NV-5138 vehicle (Veh-NV, 0.5% methylcellulose/0.1% Tween-80) or NV-5138 (160 mg/kg) was administered by oral gavage. Each treatment group was assessed at the designated time following oral dosing in FST 24 hrs (day 1) LMA 48 hrs (day 2) and the NSFT 72 hrs (day 3 following a 20 hr period of fasting). LMA was measured to rule out overall changes in generally locomotor activity. The study design is presented in Table 11 with timeline of surgical procedures, test article administration and behavioral tests is provided in FIG. 20
Study Design. Forty-eight (48) male rats weighing between 175 and 200 g were randomized into 6 study groups (n=8/group), following a 5-day acclimation period. A single dose of all test articles was administered on day 0 and the behavioral tests were performed 3, 7 and 10 days later. Groups 1 and 2 were dosed on day 0 with NV-5138 (160 mg/kg by oral gavage) and Ket (10 mg/kg by i.p. injection), respectively and subjected to a FST on day 3. […]

Male Sprague Dawley rats [3] = assay: Sucrose Preference Test (SPT) in non-stressed and chronic unpredictable stress rats; conditions: Example E, NV-5138 160 mg/kg oral single dose, 24 hrs after dosing
Description: Behavioral Analysis Using the Sucrose Preference Test (SPT): Rats were habituated to a palatable sucrose 1% sucrose solution for 48 hrs to avoid neophobia. Rats were treated with NV-5138 or Veh at the end of day 0 and the SPT was performed 24 hrs post-administration on day 1. For the SPT, rats were deprived of water for 6 hrs and exposed for 60 min to two bottles with equal volumes of 1% sucrose or water. The ratio of the volume of sucrose water consumed to total water consumed during the 1 hr test was defined as sucrose preference (e.g., a ratio of 1 would indicate the rat consumed only 1% sucrose, while a ratio of 0.5 would indicate that the rat drank equal amounts of 1% sucrose and water).
Chronic Unpredictable Stress (CUS) Conditions: Rats were exposed to a variable sequence of 12 unpredictable stressors, preventing habituation as described (Li, N. et al., Biol Psychiatry 69(8): 754-61 (2011)). […]
Study Design: Fifty-six (56) male rats weighing between 175 and 200 g were randomized into 4 study groups (n=14/group), following a 5-day acclimation period. […] Crude synaptosomes were prepared from the PFC and the synaptic proteins, GluR1 and PSD95 were quantitated by WB. […]

Structure (SMILES): CC(C)(C[C@H](N)C(=O)O)C(F)F [NV-5138]
- time spent sniffing female urine (FUST) (Male Sprague Dawley rats [1]; NV-5138 160 mg/kg oral single dose): 33.8 ± 2.9 s
- increase in time spent sniffing female urine vs Veh (Male Sprague Dawley rats [1]; NV-5138 160 mg/kg oral single dose, p<0.01): 2.9 fold
- decrease in the latency to feed (NSFT) vs Veh (Male Sprague Dawley rats [2]; Example A, NV-5138 160 mg/kg oral single dose, 72 hrs post-dose, p<0.01): 36%
- NSFT latency to feed (Male Sprague Dawley rats [2]; Example E, CUS rats, NV-5138 160 mg/kg oral, 48 hrs after treatment, p<0.0001 vs CUS Veh): 520.1 ± 40.35 s
- NSFT latency to feed (Male Sprague Dawley rats [2]; Example E, non-stressed (NS) rats, NV-5138 160 mg/kg oral, 48 hrs after treatment, p<0.01 vs Veh): 430.6 ± 25.3 s
- NSFT latency to feed (Male Sprague Dawley rats [2]; Example F, Veh-R IT infusion then NV-5138 160 mg/kg oral, 72 hrs): 510 ± 50 s
- decrease in NSFT latency to feed vs Veh-R/Veh-NV (Male Sprague Dawley rats [2]; Example F, Veh-R IT infusion then NV-5138 160 mg/kg oral, 72 hrs, p<0.05, 160 mg/kg): 46% and 32%
- NSFT latency to feed, R/NV-5138 vs Veh-R/Veh-NV (Male Sprague Dawley rats [2]; Example F, rapamycin (R, 0.01 nmol) IT infusion into PFC 30 min before NV-5138 160 mg/kg oral, 72 hrs): lack of significant effect on latency to feed
- NSFT vs Veh (Male Sprague Dawley rats [2]; Example G, NV-5138 160 mg/kg oral single dose, 10 days post-dose): No significant difference
- NSFT (Male Sprague Dawley rats [2]; Example I, NV-5138 80 mg/kg oral daily for 7 days, day 9, 72 hrs post-last dose): Significant effects
- SPT, mean ratio of 1% sucrose to water consumption (Male Sprague Dawley rats [3]; CUS rats (Group 4)): 0.79
- SPT, mean ratio of 1% sucrose to water consumption (Male Sprague Dawley rats [3]; non-stressed (NS) rats): 0.76

Structure (SMILES): CNC1(c2ccccc2Cl)CCCCC1=O (stereo not shown) [Ket, ketamine, reference compound]
- time spent sniffing female urine (FUST) (Male Sprague Dawley rats [1]; Ket 10 mg/kg i.p. single dose): 36.5 ± 7.9 s
- increase in time spent sniffing female urine vs Sal (Male Sprague Dawley rats [1]; Ket 10 mg/kg i.p. single dose, p<0.05): 2.1 fold
- decrease in the latency to feed (NSFT) vs Sal (Male Sprague Dawley rats [2]; Example A, Ket 10 mg/kg i.p. single dose, 72 hrs post-dose, p<0.01): 31%
- NSFT vs Sal (Male Sprague Dawley rats [2]; Example G, Ket 10 mg/kg i.p. single dose, 10 days post-dose): No significant difference
